In ChEMBL document CHEMBL3228035, “Deoxymorphines: role of the phenolic hydroxyl in antinociception and opiate receptor interactions” (J Med Chem, 1979):
Structures can show the parent of a compound that is named as a salt.

Experiments:
Mus musculus [1] = assay: Antinociceptive activity in sc dosed mouse by Nilsen assay; format: functional
Mus musculus [2] = assay: Antinociceptive activity in sc dosed mouse by hot-plate assay; format: functional

SMILES	ED50 (Mus musculus [1]) [µmol/kg]	ED50 (Mus musculus [2]) [µmol/kg]
CN1CC[C@]23c4c5ccc(O)c4O[C@H]2C(=O)CC[C@H]3[C@H]1C5 [HYDROMORPHONE HYDROCHLORIDE]	0.7	0.4
CN1CC[C@]23c4c5ccc(O)c4O[C@H]2[C@@H](O)C=C[C@H]3[C@H]1C5	4.1	3.3
CN1CCC23CCCCC2C1Cc1ccccc13 (racemic)		16.5
CN1CC[C@]23c4c5ccc(O)c4O[C@H]2CCC[C@H]3[C@H]1C5		0.14
CN1CC[C@]23c4c5cccc4O[C@H]2[C@@H](O)C=C[C@H]3[C@H]1C5	30.9	8.6
c1cc2c3c(c1)O[C@H]1CCC[C@H]4[C@@H](C2)NCC[C@]314	4.4	1.3
C=CCN1CC[C@]23c4c5ccc(O)c4O[C@H]2[C@@H](O)C=C[C@H]3[C@H]1C5 [NALORPHINE HYDROCHLORIDE]	13.8	105
C=CCN1CC[C@]23c4c5cccc4O[C@H]2[C@@H](O)CC[C@H]3[C@H]1C5	59.9	44
CN1CC[C@]23c4c5ccc(O)c4O[C@H]2[C@@H](O)CC[C@H]3[C@H]1C5		2.5
O[C@H]1CC[C@H]2[C@H]3Cc4cccc5c4[C@@]2(CCN3)[C@H]1O5	67.8	45.3
CN1CC[C@]23c4c5cccc4O[C@H]2C(=O)CC[C@H]3[C@H]1C5	2.8	1.8
CN1CC[C@]23c4c5cccc4O[C@H]2[C@@H](O)CC[C@H]3[C@H]1C5	8.1	4.2
CN1CC[C@]23CCCC[C@H]2[C@H]1Cc1ccc(O)cc13	0.5	0.5
